Data reported in patent US11331368B2, “Angiotensin receptor agonists and uses thereof” (Monash University, priority 2017, dated 2022).
Entries after “also recorded” stand apart in the source; their conditions may differ. Like-named read-outs stand apart in the source and are kept apart here. Square brackets hold non-standard residues; d marks the D form. Primed or numbered codes have the meaning given here. Ends that are not written are not given here. βIle = beta-form isoleucine; βVal″ = beta-form valine

Tests used:
[1] = test system: human cardiac fibroblasts; test: Pro-fibrotic effect of Ang II in human cardiac fibroblasts; assay type: cell-based
Experimental: Commercially available human cardiac fibroblasts (HCF, Catalog #6300, Sciencell, Calif., USA) were grown in T75 flask maintained in an incubator at 37° C., 5% CO2. Complete media composition: M199 media (#11150-059, life technologies)+10% FBS (#10437-028, life technologies)+1% Fibroblast Growth Supplement-2 (#2382, ScienCell)+1% penicillin/streptomycin 10,000 U/ml antibiotics (#15140-122, Life Technologies). Fresh complete media was replenished every alternate day until culture reached 70% confluence in which media is replenished daily until it reached approximately 90% confluence in order to passage/subculture. To subculture, media was discarded and culture was rinsed with warm PBS. After which, culture was detached using warm 0.05% Trypsin+EDTA with gentle swirling of flask to make sure cells were not adherent to surface of flask. Trypsin was then neutralized with complete media and suspension was then transferred into a new falcon tube and centrifuged at 1000 rpm for 5 minutes. […]

human AT2R = target: T1, human AT2R (Homo sapiens, UniProt P50052); test: Competition radioligand binding (125I-Sar1-Ile8-AngII) in AT2R-transfected HEK-293 cells; details: for binding at AT2R (displacement of 125I-Sar1-Ile8-AngII), in words: transfected HEK-293 cells
T1 construct: expressed in transfected cells
T1 sequence (P50052 1-363): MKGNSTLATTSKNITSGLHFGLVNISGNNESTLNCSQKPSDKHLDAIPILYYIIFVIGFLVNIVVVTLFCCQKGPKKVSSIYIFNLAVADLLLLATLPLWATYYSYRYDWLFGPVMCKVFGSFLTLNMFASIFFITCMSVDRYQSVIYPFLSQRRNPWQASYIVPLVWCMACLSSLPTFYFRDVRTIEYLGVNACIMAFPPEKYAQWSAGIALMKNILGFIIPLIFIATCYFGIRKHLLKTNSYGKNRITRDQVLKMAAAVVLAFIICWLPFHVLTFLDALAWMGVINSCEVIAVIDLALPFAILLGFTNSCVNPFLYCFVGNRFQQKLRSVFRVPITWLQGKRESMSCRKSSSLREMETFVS
Experimental: This will lead to the generation of IC50 values that determine the relative ability of test compounds to interact with both Angiotensin receptors.
Cells were grown to approximately 80% confluence before being re-plated into 48 well plates at 1×10^5 cells/well and grown for 48 hours at 37° C. for a whole cell competition binding assay. [125I]-Sar1Ile8Ang II at 50,000 cpm, incubated for 45 minutes at 37° C., in the absence or presence of unlabeled ligands, prepared in binding buffer (DMEM, 0.1% BSA), were used in the competition assays at concentrations ranging from 1 μM to 10 μM. For each experiment, each ligand concentration was tested in duplicate or triplicate, and each experiment was repeated at least 3 separate times. […] The ability of each ligand to inhibit specific binding of [125I]-Sar1Ile8Ang II was measured on a gamma counter with all counts corrected for NSB.

human AT1R = target: T2, human AT1R (Homo sapiens, UniProt P30556); test: Competition radioligand binding (125I-Sar1-Ile8-AngII) in AT1R-transfected HEK-293 cells
T2 construct: expressed in transfected cells
T2 sequence (P30556 1-359): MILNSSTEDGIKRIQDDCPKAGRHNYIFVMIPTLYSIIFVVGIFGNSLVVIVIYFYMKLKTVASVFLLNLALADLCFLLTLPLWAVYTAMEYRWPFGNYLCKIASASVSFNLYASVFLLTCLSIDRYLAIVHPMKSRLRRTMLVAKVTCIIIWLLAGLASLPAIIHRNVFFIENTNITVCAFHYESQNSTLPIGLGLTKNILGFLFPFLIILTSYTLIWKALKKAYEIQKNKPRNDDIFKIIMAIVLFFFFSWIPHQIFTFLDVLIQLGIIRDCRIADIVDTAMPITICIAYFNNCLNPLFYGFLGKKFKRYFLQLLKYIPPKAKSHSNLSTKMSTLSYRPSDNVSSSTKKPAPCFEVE

[2] = test system: male FVB/N mice on high salt diet, liver; test: High salt (5%) diet intervention model, liver; assay type: in vivo, mouse; details: weeks 5-8; peptides 75 pmol/kg/min s.c.; Cand 2 mg/kg/day, captopril 3 mg/kg/day
Experimental: (§1) C) In the intervention (or reversal) model, male FVB/N mice were treated with selective AT2Rs agonists after the establishment of cardiovascular disease using a high salt diet, in order to reverse cardiovascular pathologies. In some experiments, the ACE inhibitor captopril (dose) or the ARB candesartan cilexetil (dose) were given for 4 weeks in drinking water. Organs examined included heart, kidney and liver and these were compared to either untreated mice or high salt-fed mice that were treated with saline.
(§2) Mice were placed on either a normal rodent diet (0.35% NaCl) which acted as control or a high salt diet (5% sodium in food chow) for 8 weeks. After 4 weeks, mice were also treated subcutaneously (via osmotic mini-pump) with either saline or an AT2R agonist (75 pmol/kg/min subcutaneously) for 4 weeks. Mice continued to be fed a high salt diet whilst receiving these treatments.
Liver sections used either picrosirius red staining or Masson's trichome staining as described above. Higher concentrations of picrosirius red were often used under polarized light microscopy. The liver was removed and sectioned with half of the liver placed in 10% formalin and the rest frozen in liquid nitrogen before being stored in ˜80° C. freezer for future use. Formalin fixed, paraffin embedded livers were sectioned at thickness of 4 μm and were stained with Masson's trichrome according to standard procedures for analysis of liver fibrosis. […] Sections were re-fixed in Bouin's solution for 1 hour at 56° C. to improve staining quality then rinsed in running tap water for 5-10 minutes to remove yellow colour. Following this, sections were stained in Weigert's iron hematoxylin working solution for 10 minutes. Rinsed in running warm tap water for 10 minutes. Washed in distilled water. Stained in Biebrich scarlet-acid fuchsin solution for 10-15 minutes.
Washed in distilled water. Differentiated in phosphomolybdic-phosphotungstic acid solution for 10-15 minutes or until collagen was no longer red. Sections were transferred directly (without rinse) to aniline blue solution and stained for 5-10 minutes. Rinsed briefly in distilled water and differentiated in 1% acetic acid solution for 2-5 minutes. Washed in distilled water. […] Mounted with DPX mounting medium. Quantification of liver fibrosis was performed using images captured with the Aperio scanner (Monash Histology Platform, Monash University), with ×5 magnification. Each liver section had 5 different fields of view photographed at this magnification. Percentage of interstitial and perivascular collagen was analysed and quantified using ImageJ 1.48 software (Java, NIH), and the percentage from 5 random fields of view were averaged for final percentage of collagen for that particular animal. All analysis of collagen expression was conducted in a blinded fashion.

mouse aortae = test: Vasorelaxation of pre-contracted mouse aortae; details: 0.1-1000 nM, pre-contracted with U46619
Description: FIG. 17: The selective AT2R ligands, β-Pro^7-Ang III and D-Arg^2-β-Pro^7-Ang III, are functional agonists in vasculature.

[3] = test system: male FVB/N mice on high salt diet, heart; test: High salt (5%) diet intervention model, heart; assay type: in vivo, mouse
Experimental: as §1
A high-salt diet (5% salt) model is a clinically relevant and disease-reversal model which can replicate the high salt intake by humans which is currently a growing problem in the developed countries. High salt intake induces changes in the cardiovascular system and induces remodelling and fibrosis in the heart, kidney and liver.
as §2
All mice which underwent surgery were anaesthetized with Isoflurane (Isorrane) (5% induction and 2.5% maintenance) and an incision made in the midscapular region through which osmotic minipumps (Alzet model 2004, Alza Corp) were inserted for subcutaneous drug administration. The incision area was sutured with 6/0 DY silk (Dynek Pty Ltd) and antibiotic powder applied (Cicatrin, Pfizer) followed by intramuscular injection of the analgesic Cartrophen (0.1 ml of a 1.5 mg/ml stock solution; Biopharm Australia). Systolic blood pressure (SBP) was measured using non-invasive tail-cuff plethysmography apparatus (MC4000 Blood Pressure Analysis System, Hatteras Instrument Inc) before drug treatment (week 0), and then fortnightly. At the end of the 8 week treatment period mice were weighed before being killed by overdose of isoflurane inhalation and cervical dislocation.
To measure collagen deposition, frozen sections of heart, kidney or aorta (all 5 μm thickness) were air dried for 10 minutes and were brought through 3 times xylene (2 minutes each), and 3 times absolute alcohol washes before being rinsed in tap H2O for 30 seconds. Staining with an optimal concentration of picrosirius red (in this instance 0.05% picrosirius red diluted in saturated picric acid) was performed and left for an hour. Sections were then rinsed in water and differentiated in 0.01M HCl for 2 minutes, followed by dehydration via 3 times absolute alcohol washes. Then, slides were brought through 3 times xylene washes before being cover slipped according to standard histological techniques using DPX as the mounting medium. Images were taken under ×20 magnification, using bright field (Olympus, BX51) and circularized polarized light microscopy (DM IRB, Leica) while percentage of positive interstitial collagen staining per total field of view was quantified using ImageJ 1.46 software (Java, NIH), and averaged out from a total of eight views as the final percentage collagen content in a particular animal.
Immunostaining was performed on 5 μm thick transverse frozen heart sections. These sections were air dried and fixed in ice-cold acetone for approximately 15 minutes before washing with 0.01M PBS buffer (3×10 minutes). Sections were then incubated with 10% goat serum in 0.01M PBS for 30 minutes to reduce non-specific binding. If the primary antibody is raised in goat, this pre-blocked medium is substituted with 5% BSA in PBS and Triton-X. Next, blocking buffers were removed and the primary antibody to respective markers were applied overnight at room temperature based on the following dilution and origin of the antibodies: α-SMA (1:500, Abcam), Vimentin (1:500, Santa Cruz), P-IκBα (1:200, Cell Signalling), F4/80 macrophage (1:100, Serotec). […]

[4] = test system: human cardiac fibroblasts; test: AT1R and AT2R mRNA expression in human cardiac fibroblasts (qPCR); assay type: cell-based; details: 5 ng/ml for 72 hours
Experimental: FIG. 2: TGF-β1 differentially affects the mRNA expression of AT1R and AT2R in human cardiac fibroblasts. Quantitative qPCR data showing that both AT1R and AT2R are expressed in human cardiac fibroblasts. TGF-β1 (5 ng/ml for 72 hours) increased AT2R mRNA expression but not AT1R mRNA expression. Quantitative values were obtained from the threshold cycle (Ct) number. Target gene expression level was normalized against beta-actin mRNA expression for each sample and data was expressed relative to the control. Data expressed as mean±sem relative to untreated HCFs; *P<0.05 versus untreated control (t-test).

[5] = test system: human cardiac fibroblasts; test: TGF-β1-induced collagen production in human cardiac fibroblasts (Western blot); assay type: cell-based; details: co-treated with TGF-β1 for 3 days, increasing concentrations up to 1 μM
Experimental: D) Human cardiac fibroblasts (HCFs) were treated with TGFβ1 to induce a pro-fibrotic phenotype state in cell culture, exemplified by increased collagen-1 production, measured by Western blot. HCFs were treated with TGFβ1 alone, or in the presence of an AT2R agonist for 3 days, and the ability of AT2R agonists to inhibit TGFβ1-induced collagen-1 production was measured.
Commercially available human cardiac fibroblasts (HCF, Catalog #6300, Sciencell, Calif., USA) were grown in T75 flask maintained in an incubator at 37° C., 5% CO2. Complete media composition: M199 media (#11150-059, life technologies)+10% FBS (#10437-028, life technologies)+1% Fibroblast Growth Supplement-2 (#2382, ScienCell)+1% penicillin/streptomycin 10,000 U/ml antibiotics (#15140-122, Life Technologies). Fresh complete media was replenished every alternate day until culture reached 70% confluence in which media is replenished daily until it reached approximately 90% confluence in order to passage/subculture. To subculture, media was discarded and culture was rinsed with warm PBS. After which, culture was detached using warm 0.05% Trypsin+EDTA with gentle swirling of flask to make sure cells were not adherent to surface of flask. Trypsin was then neutralized with complete media and suspension was then transferred into a new falcon tube and centrifuged at 1000 rpm for 5 minutes. Supernatant was discarded and pellet of cells were resuspended with 5 ml of complete media, followed by cell counting. For subculturing/passaging, 1 million HCFs are placed into a T75 flask. For Picrosirius Red (PSR) staining or immunofluorescence experiments, 100 k cells were loaded per well in a 24 well plate lined with round coverslips. […]
Once treatment is complete, cells were washed with warm PBS and detached using Accutase (A6964, Sigma), with 5 minutes incubation at 37° C. […] The supernatant (˜20 ul) was transferred to a new tube and protein concentrations were measured using Biorad Lowry protein assay. Protein quantification of respective markers were performed via standard western blot analysis. […]

[6] = target: T3, human Angiotensin II Receptor Type 2 (AT2R) (human, UniProt P50052 1-363); test: competition radioligand binding on HEK-293 cells with AT2R; competitor [125I]-Sar1Ile8Ang II
T3 construct: whole, on cells; also endogenous on human cardiac fibroblasts (functional entries); also called AT2 receptor
T3 sequence (looked up): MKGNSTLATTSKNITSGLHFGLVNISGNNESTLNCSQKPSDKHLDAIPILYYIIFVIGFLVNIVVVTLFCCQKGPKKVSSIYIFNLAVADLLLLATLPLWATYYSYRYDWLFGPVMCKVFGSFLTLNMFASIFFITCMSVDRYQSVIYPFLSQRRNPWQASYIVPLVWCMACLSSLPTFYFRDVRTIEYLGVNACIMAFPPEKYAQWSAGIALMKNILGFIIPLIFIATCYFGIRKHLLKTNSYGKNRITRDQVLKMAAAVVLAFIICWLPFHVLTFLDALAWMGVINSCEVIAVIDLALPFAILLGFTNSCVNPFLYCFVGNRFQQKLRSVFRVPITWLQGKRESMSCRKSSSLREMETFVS
Experimental: (§3) For each experiment, each ligand concentration was tested in duplicate or triplicate, and each experiment was repeated at least 3 separate times.

[7] = target: T3, human Angiotensin II Receptor Type 2 …; test: AT2R over AT1R, from IC50s of competition radioligand binding; reference AT1R
Experimental: as §3

Ang II [reference compound]
myofibroblast differentiation (α-SMA expression) ([1]; HCFs treated with Ang II): caused myofibroblast differentiation
protein expression of collagen ([1]; varying concentrations for 3 days, Western blot): dose-dependent increases
binding at AT2R (displacement of 125I-Sar1-Ile8-AngII), in words (human AT2R): readily binds
binding at AT1R (displacement of 125I-Sar1-Ile8-AngII), in words (human AT1R): readily binds

D-Arg-Val-Tyr-Ile-His-β-Pro-Phe [D-Arg β-Pro-Ang III]
Fold AT2R selectivity (human AT2R; AT2R over AT1R, Table 3): >300,000 fold
AT2R/AT1R selectivity ratio (human AT2R; approximate or conservatively estimated): > 300,000 fold
binding at AT2R (displacement of 125I-Sar1-Ile8-AngII), in words (human AT2R): high affinity
liver fibrosis (picrosirius red, polarized light) [2]: normalised liver fibrosis
liver steatosis (Oil Red O) [2]: significantly reduced steatosis
binding at AT1R (displacement of 125I-Sar1-Ile8-AngII), in words (human AT1R; listed as D-Arg^2-β-Pro^7-Ang III): bind poorly; also recorded: did not substantially displace
vasorelaxation of pre-contracted aortae (mouse aortae): concentration-dependent vasorelaxation
myofibroblast differentiation in heart (α-SMA) ([3]; 75 pmol/kg/min s.c., weeks 5-8): fully reversed the high salt-induced myofibroblast differentiation
cardiac fibrosis (picrosirius red) ([3]; weeks 5-8 of high salt diet, peptides 75 pmol/kg/min s.c. mini-pump, Cand 2 mg/kg/day, captopril 3 mg/kg/day in drinking water): reversed established cardiac fibrosis

TGF-β1: pro-fibrotic agent (fibrogenic cytokine) used to stimulate human cardiac fibroblasts
AT1R mRNA expression [4]: not
AT2R mRNA expression [4]: increased

β-Val^3-Ang II: β-substituted Ang II peptide which only has ~50-fold AT2R:AT1R selectivity (DR[βVal″]YIHPF)
TGF-β1-induced collagen production [5]: failed to inhibit

B1: βIle-8-Ang III (peptide)
peptide: RVYIHP[βIle]-OH
notes: synthetic peptide; also called Arg-Val-Tyr-Ile-His-Pro-β-Ile
IC50 [6]: 9.6 nM
Fold AT2R selectivity [7]: 1040 fold
